Data on 4 compounds can be found in patent publication US8236762B2, “Peptide-cytotoxic conjugates” (IPSEN Pharma S.A.S., priority 2006, dated 2012).

Entries after “also recorded” stand apart in the source; their conditions may differ. Numbered stars: 1 amine (or outer) side, 2 acyl side, 3 side chain; on linkers, the order of the positions; unused ones are H or OH. Bridge positions count the residues as written; N and C are the ends. Square brackets hold non-standard residues; d marks the D form. Peptide text beside a SMILES is read from it. * marks the point of attachment. X1 = CC[C@@]1(O*)C(=O)OCc2c1cc1n(c2=O)Cc2cc3ccccc3nc2-1; Tyr(3-I) = N[C@@H](Cc1ccc(O)c(I)c1)C(=O)O; Glutaryl = O=C(CCCC(=O)[*:2])[*:1]; Abu = CC[C@H](N)C(=O)O; AEEA = NCCOCCOCC(=O)O A value given as a limit tells only on which side of the number the result lay.

One series deals with T1, hSSTR-2 (Homo sapiens, UniProt P30874).
T1 construct: expressed in transfected cells; host or cells: CHO-K1
The series can be described thus: Somatostatin receptor radioligand binding, hSSTR-2 (CHO-K1 membranes). The following applies: read-out: Ki hSSTR2 ± (SEM).

Series [1] in a line: Half-life determination in human plasma (LC-MS). Format: in vitro ADME. The following applies: 37° C. Summed up: (§1)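 Compound samples of about 50–500 μg/ml were added to 450 μl human or mouse plasma and incubated at 37 °C. Aliquots taken from 0 to 48 h were precipitated with acetonitrile. Supernatants were analysed by LC-MS (positive-mode ESI, C8 column, acetic acid water/acetonitrile gradient).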

The target of another series is T2, hSSTR-4 (Homo sapiens, UniProt P31391).
T2 construct: expressed in transfected cells; host or cells: CHO-K1
The series can be described thus: Somatostatin receptor radioligand binding, hSSTR-4 (CHO-K1 membranes). The following applies: read-out: Ki hSSTR4 ± (SEM).

The target of another series is T3, hSSTR-3 (Homo sapiens, UniProt P32745).
T3 construct: expressed in transfected cells; host or cells: CHO-K1
Put plainly: Somatostatin receptor radioligand binding, hSSTR-3 (CHO-K1 membranes). The conditions noted are these: read-out: Ki hSSTR3 ± (SEM).

A short description of series [2]: Half-life determination in mouse plasma (LC-MS). Format: in vitro ADME. The conditions noted are these: 37° C. In short, it runs like this:
as §1

A further series addresses T4, hSSTR-5 (Homo sapiens, UniProt P35346).
T4 construct: expressed in transfected cells; host or cells: CHO-K1
Put plainly: Somatostatin receptor radioligand binding, hSSTR-5 (CHO-K1 membranes). The conditions noted are these: read-out: Ki hSSTR5 ± (SEM).

A further series has as its target T5, hSSTR-1 (Homo sapiens, UniProt P30872).
T5 construct: expressed in transfected cells; host or cells: CHO-K1
Put plainly: Somatostatin receptor radioligand binding, hSSTR-1 (CHO-K1 membranes). The following applies: read-out: Ki hSSTR1 ± (SEM).

The next series concerns NCI-H69 cells. The series can be described thus: In vivo growth assay, NCI-H69 small cell lung carcinoma xenograft in nude mice. Also noted: species or system human. The conditions noted are these: female athymic nude mice, qwk×3, i.v.
The next series deals with K562 cells. The series can be described thus: In vivo growth assay, K562 human chronic myelogenous leukemia xenograft in nude mice. The conditions noted are these: female athymic nude mice, qwk×3, i.v.; 165.6, 138, 55.2 mg/kg. From the text: FIG. 2: Effects of Example 5C against tumor model human chronic myelogenous leukemia K562 in female athymic nude mice.
(§2) In other experiments, animals were implanted with human xenografts derived from NCI-H345 cells (human small cell lung carcinoma; […]), A549 cells (non-small cell lung carcinoma), MDA-MB-231 cells (breast cancer) and K562 cells (human chronic myelogenous leukemia; […]) and then subjected to treatment with the compounds of Formula I or II and the appropriate controls as described herein.
A general note: In xenograft studies the graft and the host belong to different species.

The subject of a further series is NCI-H345 cells. The series can be described thus: In vivo growth assay, NCI-H345 small cell lung carcinoma xenograft in nude mice. The following applies: female athymic nude mice, qwk×3, i.v.; 165.6, 138, 55.2 mg/kg. Also noted: species or system human.
Excerpt: FIG. 3: Effects of Example 5C against small cell lung carcinoma tumor model H345 SCLC in female athymic nude mice.
as §2

T4 sequence (P35346 whole entry): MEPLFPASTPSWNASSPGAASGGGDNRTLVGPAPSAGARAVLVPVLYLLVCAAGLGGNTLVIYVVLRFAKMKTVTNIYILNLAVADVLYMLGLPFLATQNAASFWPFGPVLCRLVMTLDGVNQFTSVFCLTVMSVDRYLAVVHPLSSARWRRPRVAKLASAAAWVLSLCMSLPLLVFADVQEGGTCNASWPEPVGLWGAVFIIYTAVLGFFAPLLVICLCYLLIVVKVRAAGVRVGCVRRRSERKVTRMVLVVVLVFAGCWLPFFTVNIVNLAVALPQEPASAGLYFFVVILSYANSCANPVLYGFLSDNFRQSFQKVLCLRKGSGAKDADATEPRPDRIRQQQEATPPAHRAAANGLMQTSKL
T5 sequence (P30872 whole entry): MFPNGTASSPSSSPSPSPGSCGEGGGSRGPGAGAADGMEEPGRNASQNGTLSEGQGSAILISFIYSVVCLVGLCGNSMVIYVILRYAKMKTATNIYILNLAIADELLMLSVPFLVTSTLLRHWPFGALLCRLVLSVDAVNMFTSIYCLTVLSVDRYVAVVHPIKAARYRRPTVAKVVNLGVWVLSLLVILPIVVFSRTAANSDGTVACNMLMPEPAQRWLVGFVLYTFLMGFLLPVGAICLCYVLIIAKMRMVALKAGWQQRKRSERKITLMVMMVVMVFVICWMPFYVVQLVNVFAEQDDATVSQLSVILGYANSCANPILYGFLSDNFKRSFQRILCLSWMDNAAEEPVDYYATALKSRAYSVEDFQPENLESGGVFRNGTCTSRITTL
T1 sequence (P30874 whole entry): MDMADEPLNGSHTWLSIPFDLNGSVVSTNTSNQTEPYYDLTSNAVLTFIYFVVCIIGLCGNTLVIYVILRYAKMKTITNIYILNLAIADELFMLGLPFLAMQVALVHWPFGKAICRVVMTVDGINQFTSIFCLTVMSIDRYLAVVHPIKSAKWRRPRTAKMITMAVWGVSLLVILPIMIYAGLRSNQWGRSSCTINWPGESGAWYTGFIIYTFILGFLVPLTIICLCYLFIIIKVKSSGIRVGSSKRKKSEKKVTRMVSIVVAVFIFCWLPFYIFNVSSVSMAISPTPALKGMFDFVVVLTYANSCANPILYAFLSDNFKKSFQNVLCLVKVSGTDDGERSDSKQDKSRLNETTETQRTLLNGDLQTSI
T3 sequence (P32745 whole entry): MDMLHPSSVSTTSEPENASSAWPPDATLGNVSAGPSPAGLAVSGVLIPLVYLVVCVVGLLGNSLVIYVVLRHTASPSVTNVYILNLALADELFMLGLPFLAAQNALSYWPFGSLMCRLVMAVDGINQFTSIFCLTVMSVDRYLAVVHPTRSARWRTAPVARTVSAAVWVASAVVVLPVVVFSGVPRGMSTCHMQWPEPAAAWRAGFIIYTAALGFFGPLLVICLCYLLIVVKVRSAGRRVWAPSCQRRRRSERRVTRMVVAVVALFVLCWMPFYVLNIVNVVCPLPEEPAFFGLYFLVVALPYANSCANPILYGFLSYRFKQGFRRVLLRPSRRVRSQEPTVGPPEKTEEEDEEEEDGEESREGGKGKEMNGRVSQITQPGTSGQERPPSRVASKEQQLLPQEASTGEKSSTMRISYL
T2 sequence (P31391 whole entry): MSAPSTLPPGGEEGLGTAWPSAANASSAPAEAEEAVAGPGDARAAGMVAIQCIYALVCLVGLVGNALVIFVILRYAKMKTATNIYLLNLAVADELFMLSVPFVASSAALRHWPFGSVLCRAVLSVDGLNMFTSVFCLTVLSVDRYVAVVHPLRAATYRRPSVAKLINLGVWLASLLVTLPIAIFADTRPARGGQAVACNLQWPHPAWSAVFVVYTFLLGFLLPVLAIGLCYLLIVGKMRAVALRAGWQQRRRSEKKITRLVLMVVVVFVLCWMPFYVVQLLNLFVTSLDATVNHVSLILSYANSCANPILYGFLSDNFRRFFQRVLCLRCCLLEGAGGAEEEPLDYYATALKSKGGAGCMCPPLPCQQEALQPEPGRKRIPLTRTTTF
Procedure for NCI-H69 cells: The mice were housed in microisolators on a 12-hour light cycle at 22° C. (72° F.) and 40%-60% humidity.
Mice were implanted subcutaneously in the flank with 5×10^6 cells of NCI-H69 cells along with an equal volume of Matrigel® Matrix (BD Biosciences, San Jose, Calif., U.S.A.), a solubilized basement membrane preparation extracted from EHS mouse sarcoma, a tumor rich in ECM proteins. The tumors were monitored initially twice weekly and then daily as the neoplasms reached the desired size of approximately 100 mm^3, (100 mg). When the small cell lung carcinomas attained the desired size in calculated tumor weight, the animals were pair-matched on Day 1 into various treatment groups. The estimated tumor weight was calculated using the formula:
[formula] where w=width and l=length, both measured in mm, of a small cell lung carcinoma.
Animals with tumors were then subject to either no treatment at all, treatment with a vehicle control (either saline or water), treatment with a camptothecin only control (7.5 mg/kg) or treatment with a compound according to Formula I or II as discussed above. All treatments were administered intravenously.
Procedure for hSSTR-2: (§3) Membranes for in vitro receptor binding assays were obtained by homogenizing (Polytron setting 6, 15 sec) CHO-K1 cells expressing human somatostatin receptor subtypes hSSTR-1, hSSTR-2, hSSTR-3, hSSTR-4 or hSSTR-5 in ice-cold 50 mM Tris-HCl. The homogenized cells were centrifuged twice at 39,000 g for 10 minutes with an intermediate resuspension in fresh buffer. The final pellets were resuspended in 10 mM Tris-HCl to prepare the cell membrane homogenate for use in the binding assay.
(§4) For the hSSTR-1, hSSTR-3, and hSSTR-4 assays, aliquots of the membrane preparations were incubated for 90 minutes at 25° C. with 0.05 nM [^125I-Tyr11]SRIF-14 in 50 mM HEPES (pH 7.4) buffer containing 0.2% BSA and 5 mM MgCl2. The final assay volume was 0.3 ml. For the hSSTR-2 and hSSTR-5 assays, [^125I]-[4-(2-hydroxyethyl)]-1-piperazinylacetyl-D-Phe-c(Cys-Tyr-D-Trp-Lys-Abu-Cys)-Thr-NH2 (0.05 nM) and [^125I]-D-Phe-c(Cys-Tyr-D-Trp-Lys-Val-Cys)-Thr-NH2 were employed as the radioligands, respectively.
(§5) The cell membrane homogenate was incubated with the radioligands for 90 minutes at 25° C. The incubations were terminated by rapid filtration through GF/C filters pre-soaked in 0.3% polyethylenimine using a Brandel® filtration manifold (Gaithersberg, Md., U.S.A.). Each tube and filter was washed three times with 5-ml aliquots of ice-cold buffer. Specific binding was defined as the total radioligand bound minus that bound in the presence of 1000 nM SRIF-14 (for hSSTR-1, hSSTR-3, hSSTR-4 or hSSTR-5), or 1000 nM DPhe-c(Cys-Tyr-D-Trp-Lys-Abu-Cys)-Thr-NH2 for hSSTR-2.
Procedure for hSSTR-3: as §3, §4, §5
Procedure for hSSTR-5: as §3, §4, §5

A word on the Ki: it is the equilibrium dissociation constant of an inhibitor or competing ligand from its target. A word on the half-life: it is how long it takes for the measured level to halve. Low readings indicate rapid decline, high ones slow decline. As to `CC[C@@H]1NC(=O)[C@H](CCCCN)NC(=O)[C@@H](Cc2c[nH]c3ccccc23)NC(=O)[C@H](Cc2ccc(O)c(I)c2)NC(=O)[C@@H](NC(=O)[C@@H](Cc2ccc(O)cc2)NC(=O)[C@@H](Cc2ccc(O)cc2)NC(=O)[C@H](CCCCN)NC(=O)COCCOCCNC(=O)COCCOCCNC(=O)COCCOCCNC(=O)COCCOCCNC(=O)CCCC(=O)NCC(=O)O[C@]2(CC)C(=O)OCc3c2cc2n(c3=O)Cc3cc4ccccc4nc3-2)CSSC[C@@H](C(=O)N[C@H](C(N)=O)[C@@H](C)O)NC1=O` [Example 3, Camptothecin-rvGly-Glut-(Doc)4-Lys-D-Tyr-D-Tyr-c(Cys-3-(I)Tyr-D-Trp-Lys-Abu-Cys)-Thr-NH2] ({X1-Gly-Glutaryl-AEEA-AEEA-AEEA-AEEA}-K[dY][dY]C[Tyr(3-I)][dW]K[Abu]CT-NH2; disulfide 4-9), the Ki was 0.1 nM on hSSTR-2; at least 1000 nM on hSSTR-4; 94 nM at hSSTR-3; 3.86 nM at hSSTR-5; at least 1000 nM at hSSTR-1. In addition, the half-life in [1] is 3.8 h; in series [2], 5.7 h.

Consider `CC[C@@]1(OC(=O)CNC(=O)CCCC(=O)NCCOCCOCC(=O)NCCOCCOCC(=O)NCCOCCOCC(=O)NCCOCCOCC(=O)N[C@@H](CCCCN)C(=O)N[C@H](Cc2ccc(O)cc2)C(=O)N[C@H](Cc2ccc(O)cc2)C(=O)N[C@H]2CSSC[C@@H](C(N)=O)NC(=O)[C@H]([C@@H](C)O)NC(=O)[C@H](CCCCN)NC(=O)[C@@H](Cc3c[nH]c4ccccc34)NC(=O)[C@H](Cc3ccccc3)NC(=O)[C@H](Cc3ccccc3)NC2=O)C(=O)OCc2c1cc1n(c2=O)Cc2cc3ccccc3nc2-1` [Example 4, Camptothecin-rvGly-Glut-(Doc)4-Lys-D-Tyr-D-Tyr-c(Cys-Phe-Phe-D-Trp-Lys-Thr-Cys)-NH2] ({X1-Gly-Glutaryl-AEEA-AEEA-AEEA-AEEA}-K[dY][dY]CFF[dW]KTC-NH2; disulfide 4-10), for which the inhibition constant (Ki) is 9.38 nM at hSSTR-2; at least 1000 nM at hSSTR-4; at least 1000 nM at hSSTR-3; 481 nM on hSSTR-5; at least 1000 nM at hSSTR-1. Also, the values for the half-life in series [1] and in [2] were 3.2 h and 4.4 h, respectively.

For “Camptothecin-rvD-Asp-Suc-(Doc)4-Aepa-D-Phe-c(Cys-Tyr-D-Trp-Lys-Abu-Cys)-Thr-NH2 Camptothecin-rvAsp-Suc-(Doc)4-Aepa-D-Phe-c(Cys-Tyr-D-Trp-Lys-Abu-Cys)-Thr-NH2 [Example 5B]”, in the series with NCI-H69 cells, the “tumor growth in vivo, NCI-H69 xenograft (FIG. 1)” value is given as “Suppression of tumor growth”.

For the compound “Camptothecin-rvD-Asp-Suc-(Doc)4-Aepa-D-Phe-c(Cys-Tyr-D-Trp-Lys-Abu-Cys)-Thr-NH2 [Example 5C]”, in the series with NCI-H69 cells, the “tumor growth in vivo, NCI-H69 xenograft (FIG. 1)” value is “Suppression of tumor growth”. Besides, the “tumor growth in vivo, K562 human chronic myelogenous leukemia xenograft” value in the series with K562 cells is “Suppression of tumor growth; also recorded: suppressed growth”. For the same compound, the “tumor growth in vivo, H345 small cell lung carcinoma xenograft” value with NCI-H345 cells is given as “Suppression of tumor growth; also recorded: suppressed growth”.
